Among the data in PubChem BioAssay AID1259407 (Chemical Carcinogenesis Research Information System (CCRIS), 2018) are mutagenic call values, retold here.

The test system of the data set is CCRIS mutagenicity, Ames/micronucleus/aberration tests. Description: CCRIS mutagenicity studies.
The mark [1] stands for this setting: Test System: AMES SALMONELLA TYPHIMURIUM, Strain/Indicator: TA100, Metabolic Activation: NONE, Method: STANDARD PLATE.

Activity calls are given as the source filed them. How the calls were made is not given here.

Regarding `N[C@H](CS)C(=O)O`, the mutagenic call (Test System: AMES SALMONELLA TYPHIMURIUM, Strain/Indicator: TA92, Metabolic Activation: NONE, Method: STANDARD PLATE) is “inactive; negative”; the mutagenic call (Test System: AMES SALMONELLA TYPHIMURIUM, Strain/Indicator: TA92, Metabolic Activation: RAT, KIDNEY, S-9, Method: STANDARD PLATE) was “inactive; negative”; the mutagenic call (Test System: AMES SALMONELLA TYPHIMURIUM, Strain/Indicator: TA92, Metabolic Activation: RAT, LIVER, S-9, Method: STANDARD PLATE) was “inactive; negative”; the mutagenic call under setting [1] was “inactive; negative”; the mutagenic call (Test System: AMES SALMONELLA TYPHIMURIUM, Strain/Indicator: TA100, Metabolic Activation: RAT, KIDNEY, S-9, Method: STANDARD PLATE) is “inactive; negative”; the mutagenic call (Test System: AMES SALMONELLA TYPHIMURIUM, Strain/Indicator: TA100, Metabolic Activation: RAT, LIVER, S-9, Method: STANDARD PLATE) is “inactive; negative”.
Regarding `O=[N+]([O-])C1=Cc2cc3cc4ccccc4cc3c3cccc1c23`, the mutagenic call (Test System: AMES SALMONELLA TYPHIMURIUM, Strain/Indicator: TA98, Metabolic Activation: NONE, Method: STANDARD PLATE) was “active; positive”; the mutagenic call (Test System: AMES SALMONELLA TYPHIMURIUM, Strain/Indicator: TA98, Metabolic Activation: RAT, LIVER, S-9, AROCLOR 1254, Method: STANDARD PLATE) was “active; positive”; the mutagenic call under setting [1] was “inactive; negative”; the mutagenic call (Test System: AMES SALMONELLA TYPHIMURIUM, Strain/Indicator: TA100, Metabolic Activation: RAT, LIVER, S-9, AROCLOR 1254, Method: STANDARD PLATE) was “inactive; negative”; the mutagenic call (Test System: AMES SALMONELLA TYPHIMURIUM, Strain/Indicator: TA1535, Metabolic Activation: NONE, Method: STANDARD PLATE) was “inactive; negative”; the mutagenic call (Test System: AMES SALMONELLA TYPHIMURIUM, Strain/Indicator: TA1535, Metabolic Activation: RAT, LIVER, S-9, AROCLOR 1254, Method: STANDARD PLATE) is “inactive; negative”. For the same compound, the mutagenic call by setting is: (Test System: AMES SALMONELLA TYPHIMURIUM, Strain/Indicator: TA1537, Metabolic Activation: NONE, Method: STANDARD PLATE) “active; positive”; (Test System: AMES SALMONELLA TYPHIMURIUM, Strain/Indicator: TA1537, Metabolic Activation: RAT, LIVER, S-9, AROCLOR 1254, Method: STANDARD PLATE) “active; positive”; (Test System: AMES SALMONELLA TYPHIMURIUM, Strain/Indicator: TA1538, Metabolic Activation: NONE, Method: STANDARD PLATE) “active; positive”; (Test System: AMES SALMONELLA TYPHIMURIUM, Strain/Indicator: TA1538, Metabolic Activation: RAT, LIVER, S-9, AROCLOR 1254, Method: STANDARD PLATE) “inactive; negative”.
With `[Na+]`, the mutagenic call runs as follows: (Test System: AMES SALMONELLA TYPHIMURIUM, Strain/Indicator: TA97, Metabolic Activation: HAMSTER, LIVER, S-9, AROCLOR 1254 (10 OR 30%), Method: PREINCUBATION) “inactive; negative”; (Test System: AMES SALMONELLA TYPHIMURIUM, Strain/Indicator: TA97, Metabolic Activation: NONE, Method: PREINCUBATION) “inactive; negative”; (Test System: AMES SALMONELLA TYPHIMURIUM, Strain/Indicator: TA97, Metabolic Activation: RAT, LIVER, S-9, AROCLOR 1254 (10 OR 30%), Method: PREINCUBATION) “inactive; negative”; (Test System: AMES SALMONELLA TYPHIMURIUM, Strain/Indicator: TA98, Metabolic Activation: HAMSTER, LIVER, S-9, AROCLOR 1254 (10 OR 30%), Method: PREINCUBATION) “inactive; negative”; (Test System: AMES SALMONELLA TYPHIMURIUM, Strain/Indicator: TA98, Metabolic Activation: NONE, Method: PREINCUBATION) “inactive; negative”; (Test System: AMES SALMONELLA TYPHIMURIUM, Strain/Indicator: TA98, Metabolic Activation: RAT, LIVER, S-9, AROCLOR 1254 (10 OR 30%), Method: PREINCUBATION) “inactive; negative”. Besides, the mutagenic call reads like this: (Test System: AMES SALMONELLA TYPHIMURIUM, Strain/Indicator: TA100, Metabolic Activation: HAMSTER, LIVER, S-9, AROCLOR 1254 (10 OR 30%), Method: PREINCUBATION) “inactive; negative”; (Test System: AMES SALMONELLA TYPHIMURIUM, Strain/Indicator: TA100, Metabolic Activation: NONE, Method: PREINCUBATION) “inactive; negative”; (Test System: AMES SALMONELLA TYPHIMURIUM, Strain/Indicator: TA100, Metabolic Activation: RAT, LIVER, S-9, AROCLOR 1254 (10 OR 30%), Method: PREINCUBATION) “inactive; negative”; (Test System: AMES SALMONELLA TYPHIMURIUM, Strain/Indicator: TA1535, Metabolic Activation: HAMSTER, LIVER, S-9, AROCLOR 1254 (10 OR 30%), Method: PREINCUBATION) “inactive; negative”; (Test System: AMES SALMONELLA TYPHIMURIUM, Strain/Indicator: TA1535, Metabolic Activation: NONE, Method: PREINCUBATION) “inactive; negative”; (Test System: AMES SALMONELLA TYPHIMURIUM, Strain/Indicator: TA1535, Metabolic Activation: RAT, LIVER, S-9, AROCLOR 1254 (10 OR 30%), Method: PREINCUBATION) “inactive; negative”. For the same compound, the mutagenic call reads like this: (Test System: AMES SALMONELLA TYPHIMURIUM, Strain/Indicator: TA1537, Metabolic Activation: HAMSTER, LIVER, S-9, AROCLOR 1254 (30%), Method: PREINCUBATION) “inactive; negative”; (Test System: AMES SALMONELLA TYPHIMURIUM, Strain/Indicator: TA1537, Metabolic Activation: NONE, Method: PREINCUBATION) “inactive; negative”; (Test System: AMES SALMONELLA TYPHIMURIUM, Strain/Indicator: TA1537, Metabolic Activation: RAT, LIVER, S-9, AROCLOR 1254 (30%), Method: PREINCUBATION) “inactive; negative”; (Test System: CHINESE HAMSTER OVARY, Strain/Indicator: CHO-K1-BH4 (HGPRT), Metabolic Activation: NONE, Method: SUSPENSION/PLATE) “inactive; negative”; (Test System: CHINESE HAMSTER OVARY, Strain/Indicator: CHO-K1-BH4 (HGPRT), Metabolic Activation: RAT, LIVER, S-9, AROCLOR, Method: SUSPENSION/PLATE) “inactive; negative”; (Test System: MOUSE LYMPHOMA, Strain/Indicator: L5178Y (TK+/TK-), Metabolic Activation: NONE, Method: SUSPENSION/PLATE) “active; positive”.
